Experimental data reported in patent publication US8258141B2, “Organic compounds” (Novartis AG, priority 2006, dated 2012).
Where a name gives a salt, the structure may show the parent alone.

Biological target: adenosine A2A receptor (Homo sapiens, UniProt P29274)
Assay: Adenosine A2A receptor agonist assay, method of L. J. Murphree et al, Molecular Pharmacology 61, 455-462 (2002)
Type: binding
Excerpt: Compounds of formula (I) and formula (II) and their pharmaceutically acceptable salts are useful as pharmaceuticals. In particular, they activate the adenosine A2A receptor, i.e. they act as A2A receptor agonists.

Chain of adenosine A2A receptor (P29274 whole entry): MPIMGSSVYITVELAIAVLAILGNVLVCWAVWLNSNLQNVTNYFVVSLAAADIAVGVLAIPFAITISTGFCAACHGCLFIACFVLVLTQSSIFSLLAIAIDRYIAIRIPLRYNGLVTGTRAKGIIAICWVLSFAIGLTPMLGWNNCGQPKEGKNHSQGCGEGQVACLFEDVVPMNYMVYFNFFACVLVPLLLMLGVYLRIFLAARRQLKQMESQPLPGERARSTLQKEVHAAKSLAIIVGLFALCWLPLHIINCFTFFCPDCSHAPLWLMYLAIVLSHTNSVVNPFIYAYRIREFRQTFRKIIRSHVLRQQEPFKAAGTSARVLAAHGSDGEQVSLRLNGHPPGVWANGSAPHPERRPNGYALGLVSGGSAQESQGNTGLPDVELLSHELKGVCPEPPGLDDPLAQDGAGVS

Row | Compound | Ki
1 | CCC(=O)N[C@H]1C[C@@H](n2cnc3c(NCC(c4ccccc4)c4ccccc4)nc(N4CC[C@@H](NC(=O)N[C@@H]5CCN(C(=O)c6ccc(C(=O)OC)cc6)C5)C4)nc32)[C@H](O)[C@@H]1O [Example 36, 4-[(R)-3-(3-{(R)-1-[9-((1R,2S,3R,4S)-2,3-Dihydroxy-4-propionylamino-cyclopentyl)-6-(2,2-diphenyl-ethylamino)-9H-purin-2-yl]-pyrrolidin-3-yl}-ureido)-pyrrolidine-1-carbonyl]-benzoic acid methyl ester] | 3 nM
2 | N[C@@H]1CCN(c2nc(NCC(c3ccccc3)c3ccccc3)c3ncn([C@@H]4C[C@H](NC(=O)CO)[C@@H](O)[C@H]4O)c3n2)C1 [Example 1, N-{(1S,2R,3S,4R)-4-[2-((R)-3-Amino-pyrrolidin-1-yl)-6-(2,2-diphenyl-ethylamino)-purin-9-yl]-2,3-dihydroxy-cyclopentyl}-2-hydroxy-acetamide trifluoroacetate] | 8.3 nM
3 | CCC(=O)N[C@H]1C[C@@H](n2cnc3c(NCC(c4ccccc4)c4ccccc4)nc(N4CC[C@@H](NC(=O)Nc5ccc(OCc6ccccc6)cc5)C4)nc32)[C@H](O)[C@@H]1O [Example 178, N-{(1S,2R,3S,4R)-4-[2-{(R)-3-[3-(4-Benzyloxy-phenyl)-ureido]-pyrrolidin-1-yl}-6-(2,2-diphenyl-ethylamino)-purin-9-yl]-2,3-dihydroxy-cyclopentyl}-propionamide trifluoroacetate] | 8 nM

The next molecules have a lower Ki than those just listed; values first:

Row | Ki | Compound
4 | 2.5 nM | O=C(CO)N[C@H]1C[C@@H](n2cnc3c(NCC(c4ccccc4)c4ccccc4)nc(C(=O)NCCNC(=O)NC4CCN(c5ccccn5)CC4)nc32)[C@H](O)[C@@H]1O [Example 14, 9-[(1R,2S,3R,4S)-2,3-Dihydroxy-4-(2-hydroxy-acetylamino)-cyclopentyl]-6-(2,2-diphenyl-ethylamino)-9H-purine-2-carboxylic acid {2-[3-(3,4,5,6-tetrahydro-2H-[1,2′]bipyridinyl-4-yl)-ureido]-ethyl}-amide trifluoroacetate]
5 | 1.6 nM | CCC(=O)N[C@H]1C[C@@H](n2cnc3c(NCC(c4ccccc4)c4ccccc4)nc(N4CC[C@@H](NC(=O)NCc5ccncc5)C4)nc32)[C@H](O)[C@@H]1O [Example 20, N-((1S,2R,3S,4R)-4-{6-(2,2-diphenyl-ethylamino)-2-[(R)-3-(3-pyridin-4-ylmethyl-ureido)-pyrrolidin-1-yl]-purin-9-yl}-2,3-dihydroxy-cyclopentyl)-propionamide trifluoroacetate]
